Converted amounts (≈) assume the structure as drawn. The source made the active and inactive calls. The rule behind the calls is not given here. Bridge positions count the residues as written; N and C are the ends. Square brackets hold non-standard residues; d marks the D form. Peptide text beside a SMILES is read from it. * marks the point of attachment. ξ: configuration not given here. Hexanoyl(4ξ-Me) = CCC(C)CCC(=O)*; Myristoyl = CCCCCCCCCCCCCC(=O)*; X2 = CC(C)=CCC/C(C)=C/C(=O)*; X3 = CC[C@H](C)CCCCC(=O)*; dDab = NCC[C@@H](N)C(=O)O; X1 = CCC(C)CCC(O)CC(=O)*; Dab = NCC[C@H](N)C(=O)O
Experiments:
[1] = tested on: Candida albicans; test: Induction of morphological changes in Candida albicans SC5314 assessed as necrosis of cytoplasm at 0.5 to 10 times MIC after 45 mins by Uranyl acetate/Lead citrate staining based transmission electron microscopic analysis; assay type: functional, organism-based
[2] = tested on: Candida albicans; test: Antibiofilm activity against Candida albicans SC5314 incubated for overnight by XTT assay; assay type: functional
[3] = Haemolytic activity in mouse RBC at 6 uM incubated for 1 hr relative to control; assay type: ADME, cell-based, Erythrocyte; settings: mouse red blood cells (erythrocytes), read-out: Activity
[4] = tested on: Candida albicans; test: Induction of morphological changes in Candida albicans SC5314 assessed as disruption of fungal cell walls at 0.5 to 10 times MIC after 45 mins by Uranyl acetate/Lead citrate staining based transmission electron microscopic analysis; assay type: functional, organism-based
[5] = tested on: Candida albicans; test: Antifungal activity against Candida albicans SC5314 after 48 hrs; assay type: functional; settings: SC5314, 48 h
[6] = tested on: Candida albicans; test: Induction of eradication of 48 hrs old preformed Candida albicans SC5314 biofilm up to 125 uM after 24 to 48 hrs by XTT assay; assay type: functional, organism-based
[7] = tested on: Candida albicans; test: Induction of eradication of 24 hrs old preformed Candida albicans SC5314 biofilm after 24 to 48 hrs by XTT assay; assay type: functional
[8] = tested on: Candida albicans; test: Induction of morphological changes in Candida albicans SC5314 assessed as disruption of fungal cell membranes at 0.5 to 10 times MIC after 45 mins by Uranyl acetate/Lead citrate staining based transmission electron microscopic analysis; assay type: functional, organism-based
[9] = tested on: Lipid bilayer; test: Disruption of phosphatidylcholine/ phosphatidylinositol/phosphatidylethanolamine membrane at 200 uM by colorimetric assay
[10] = tested on: Candida albicans; test: Ratio of MIC for Candida albicans SC5314 to MIC for Candida albicans SC5314 in presence of 800 nmol AmB; assay type: functional
[11] = tested on: Candida albicans; test: Synergistic antifungal activity against Candida albicans SC5314 after 48 hrs in presence of 800 nmol AmB; assay type: functional; settings: SC5314, 48 h
[12] = tested on: Candida albicans; test: Synergistic antifungal activity against Candida albicans SC5314 assessed as FIC index after 48 hrs in presence of 400 nmol AmB; assay type: functional
[13] = tested on: Candida albicans; test: Ratio of MIC for Candida albicans SC5314 to MIC for Candida albicans SC5314 in presence of 400 nmol AmB; assay type: functional
[14] = tested on: Candida albicans; test: Synergistic antifungal activity against Candida albicans SC5314 assessed as FIC index after 48 hrs in presence of 800 nmol AmB; assay type: functional
[15] = tested on: Candida albicans; test: Synergistic antifungal activity against Candida albicans SC5314 after 48 hrs in presence of 400 nmol AmB; assay type: functional; settings: SC5314, 48 h
[16] = tested on: Candida albicans; test: Potency index, ratio of MIC for polymyxin B to compound MIC for antifungal activity against Candida albicans SC5314; assay type: functional
[17] = tested on: HEK293; test: Cytotoxicity against HEK293 cells after 48 hrs by MTT assay; assay type: cell-based; settings: human, hek293, 48 h
[18] = tested on: Erythrocyte; test: Haemolytic activity in human RBC incubated for 2 hrs; assay type: ADME, cell-based
[19] = Toxicity in iv dosed Kunming mouse assessed as death counted daily for 14 days; assay type: organism-based; settings: in vivo

## C[C@@H]1[C@H](O)[C@@H](C)/C=C/C=C/C=C/C=C/C=C/C=C/C=C/[C@H](O[C@@H]2O[C@H](C)[C@@H](O)[C@H](N)[C@@H]2O)C[C@@H]2O[C@](O)(C[C@@H](O)C[C@@H](O)[C@H](O)CC[C@@H](O)C[C@@H](O)CC(=O)O[C@H]1C)C[C@H](O)[C@H]2C(=O)O [AMPHOTERICIN B]
[1]
  Activity: Active
[2]
  MBIC50: 0.78 µM
[3]
  hemolysis at 1 h, 6 µM: 50%
[4]
  Activity: Active
[5]
  MIC: 1.56 µM (≈ 1.44 µg/mL)
[6]
  Activity: inactive
[7]
  MBEC50: 6.25 µM
[8]
  Activity: Active

## CCCC(=O)N[C@H](CCN)C(=O)N[C@@H](CCN)C(=O)N[C@@H](CCN)C(=O)N[C@@H](CC(C)C)C(=O)N[C@H](Cc1ccccc1)C(=O)N[C@@H](CCN)C(=O)N[C@@H](CCN)C(=O)N[C@@H](CC(C)C)C(N)=O
[9]
  Activity: inactive
[5]
  MIC: > 100 µM

## CCC(C)CCC(=O)N[C@H](CCCCN)C(=O)N[C@@H](CCCCN)C(=O)N[C@@H](CCCCN)C(=O)N[C@@H](CC(C)C)C(=O)N[C@H](Cc1ccccc1)C(=O)N[C@@H](CCCCN)C(=O)N[C@@H](CCCCN)C(=O)N[C@@H](CC(C)C)C(N)=O (stereo not given in full)
[5]
  MIC: > 100 µM

## CCC(C)CCC(=O)N[C@H](CCN)C(=O)N[C@@H](CCN)C(=O)N[C@@H](CCN)C(=O)N[C@@H](CC(C)C)C(=O)N[C@H](Cc1ccccc1)C(=O)N[C@@H](CCN)C(=O)N[C@@H](CCN)C(=O)N[C@@H](CC(C)C)C(=O)N[C@H](CCN)C(=O)N[C@@H](CCN)C(=O)N[C@@H](CCN)C(=O)N[C@@H](CC(C)C)C(=O)N[C@H](Cc1ccccc1)C(=O)N[C@@H](CCN)C(=O)N[C@@H](CCN)C(=O)N[C@@H](CC(C)C)C(N)=O (stereo not given in full)
[10]
  Ratio: 8 - 32
[11]
  MIC: 1.56 µM
[12]
  fractional inhibitory concentration index (FICI): 2.24
[5]
  MIC: 12.5 µM (≈ 23.5 µg/mL)
[13]
  Ratio: 4
[14]
  fractional inhibitory concentration index (FICI): 1.12
[15]
  MIC: 3.12 µM

## CCC(C)CCC(=O)N[C@H](CCN)C(=O)N[C@@H](CCN)C(=O)N[C@@H](CCN)C(=O)N[C@@H](CC(C)C)C(=O)N[C@H](Cc1c[nH]c2ccccc12)C(=O)N[C@@H](CCN)C(=O)N[C@@H](CCN)C(=O)N[C@@H](CC(C)C)C(N)=O (stereo not given in full)
[5]
  MIC: 25 µM (≈ 26.1 µg/mL)

## CCCCCC(=O)N[C@H](CCN)C(=O)N[C@@H](CCN)C(=O)N[C@@H](CCN)C(=O)N[C@@H](CC(C)C)C(=O)N[C@H](Cc1ccccc1)C(=O)N[C@@H](CCN)C(=O)N[C@@H](CCN)C(=O)N[C@@H](CC(C)C)C(N)=O
[9]
  Activity: inactive
[5]
  MIC: 100 µM (≈ 98.9 µg/mL)

## CC(C)C[C@H](NC(=O)[C@H](CCN)NC(=O)[C@H](CCN)NC(=O)[C@@H](Cc1ccccc1)NC(=O)[C@H](CC(C)C)NC(=O)[C@H](CCN)NC(=O)[C@H](CCN)NC(=O)[C@H](N)CCN)C(N)=O (H-[dDab][Dab][Dab]L[dF][Dab][Dab]L-NH2)
[5]
  MIC: > 100 µM

## CC(=O)N[C@H](CCN)C(=O)N[C@@H](CCN)C(=O)N[C@@H](CCN)C(=O)N[C@@H](CC(C)C)C(=O)N[C@H](Cc1ccccc1)C(=O)N[C@@H](CCN)C(=O)N[C@@H](CCN)C(=O)N[C@@H](CC(C)C)C(N)=O
[9]
  Activity: inactive
[5]
  MIC: > 100 µM

## CCCCCCCCCCCCCC(=O)N[C@H](CCN)C(=O)N[C@@H](CCN)C(=O)N[C@@H](CCN)C(=O)N[C@@H](CC(C)C)C(=O)N[C@H](Cc1ccccc1)C(=O)N[C@@H](CCN)C(=O)N[C@@H](CCN)C(=O)N[C@@H](CC(C)C)C(N)=O (Myristoyl-[dDab][Dab][Dab]L[dF][Dab][Dab]L-NH2)
[5]
  MIC: 12.5 µM (≈ 13.8 µg/mL)

## CCC(C)CCC(=O)N[C@H](CCN)C(=O)N[C@@H](CCN)C(=O)N[C@@H](CCN)C(=O)N[C@@H](CC(C)C)C(=O)N[C@H](Cc1ccccc1)C(=O)N[C@@H](CCN)C(=O)N[C@@H](CCN)C(=O)N[C@@H](CC(C)C)C(N)=O (stereo partly drawn) ({Hexanoyl(4ξ-Me)}-[dDab][Dab][Dab]L[dF][Dab][Dab]L-NH2)
[10]
  Ratio: 8 - 32
[16]
  Ratio: 2
[11]
  MIC: 1.56 µM
[12]
  fractional inhibitory concentration index (FICI): 8.26
[5]
  MIC: 50 µM (≈ 50.2 µg/mL)
[13]
  Ratio: 4
[14]
  fractional inhibitory concentration index (FICI): 1.03
[15]
  MIC: 12.5 µM

## CCCCC(=O)N[C@H](CCN)C(=O)N[C@@H](CCN)C(=O)N[C@@H](CCN)C(=O)N[C@@H](CC(C)C)C(=O)N[C@H](Cc1ccccc1)C(=O)N[C@@H](CCN)C(=O)N[C@@H](CCN)C(=O)N[C@@H](CC(C)C)C(N)=O
[9]
  Activity: inactive
[5]
  MIC: > 100 µM

## CC(C)=CCC/C(C)=C/C(=O)N[C@H](CCN)C(=O)N[C@@H](CCN)C(=O)N[C@@H](CCN)C(=O)N[C@@H](CC(C)C)C(=O)N[C@H](Cc1ccccc1)C(=O)N[C@@H](CCN)C(=O)N[C@@H](CCN)C(=O)N[C@@H](CC(C)C)C(N)=O (X2-[dDab][Dab][Dab]L[dF][Dab][Dab]L-NH2)
[5]
  MIC: 50 µM (≈ 52.1 µg/mL)

## CCC(=O)N[C@H](CCN)C(=O)N[C@@H](CCN)C(=O)N[C@@H](CCN)C(=O)N[C@@H](CC(C)C)C(=O)N[C@H](Cc1ccccc1)C(=O)N[C@@H](CCN)C(=O)N[C@@H](CCN)C(=O)N[C@@H](CC(C)C)C(N)=O
[9]
  Activity: inactive
[5]
  MIC: > 100 µM

## CCC(C)CCC(O)CC(=O)N[C@H](CCN)C(=O)N[C@H]1CCNC(=O)[C@H](CC(C)C)NC(=O)[C@H](CCN)NC(=O)[C@H](CCN)NC(=O)[C@@H](Cc2ccccc2)NC(=O)[C@H](CC(C)C)NC(=O)[C@H](CCN)NC1=O (stereo not given in full) (X1-[dDab][Dab][Dab]L[dF][Dab][Dab]L; lactam 2-C)
[17]
  Activity: > 128 µg/mL
[18]
  Activity: > 750 µg/mL
[19]
  LD50 at 336 h: 6 mg/kg

## CCC(C)CCC(=O)N[C@H](CCN)C(=O)N[C@@H](CCN)C(=O)N[C@@H](CC(C)C)C(=O)N[C@H](Cc1ccccc1)C(=O)N[C@@H](CCN)C(N)=O (stereo not given in full) ({Hexanoyl(4ξ-Me)}-[dDab][Dab]L[dF][Dab]-NH2)
[5]
  MIC: > 100 µM

## CC(C)C[C@H](NC(=O)[C@H](CCN)NC(=O)[C@H](CCN)NC(=O)[C@@H](Cc1ccccc1)NC(=O)[C@H](CC(C)C)NC(=O)[C@H](CCN)NC(=O)[C@H](CCN)NC(=O)[C@@H](CCN)NC(=O)[C@H](N)CS)C(N)=O
[5]
  MIC: > 100 µM

## CC(C)C[C@H](NC(=O)[C@H](CCN)NC(=O)[C@H](CCN)NC(=O)[C@@H](Cc1ccccc1)NC(=O)[C@H](CC(C)C)NC(=O)[C@H](CCN)NC(=O)[C@H](CCN)NC(=O)[C@@H](CCN)NC(=O)OCC1c2ccccc2-c2ccccc21)C(N)=O
[5]
  MIC: 12.5 µM (≈ 13.9 µg/mL)

## CC[C@H](C)CCCCC(=O)N[C@@H](CCN)C(=O)N[C@H](C(=O)N[C@@H](CCN)C(=O)N[C@H]1CCNC(=O)[C@H]([C@@H](C)O)NC(=O)[C@H](CCN)NC(=O)[C@H](CCN)NC(=O)[C@H](CC(C)C)NC(=O)[C@@H](Cc2ccccc2)NC(=O)[C@H](CCN)NC1=O)[C@@H](C)O (X3-[Dab]T[Dab][Dab][Dab][dF]L[Dab][Dab]T; lactam 4-C)
[5]
  MIC: > 100 µM

Reference: ChEMBL document CHEMBL4145514, “Unexplored antifungal activity of linear battacin lipopeptides against planktonic and mature biofilms of C. albicans” (Eur J Med Chem, 2018)
